Starred links: 1 amine or outer side, 2 acyl side, 3 side chain; linkers in the order of their positions; H or OH if unused. Positions of bridges follow the written chain, without caps; N, C: chain ends. Non-standard residues stand in square brackets, D forms with d. Residues, ends and D or L forms follow the SMILES beside them. Chains are numbered I, II in the order given. Actinocin(9to1) = Cc1c2oc3c(C)ccc(C(=O)[*:1])c3nc-2c(C(=O)[*:2])c(N)c1=O; NMeV = CN[C@H](C(=O)O)C(C)C; Sar = CNCC(=O)O
Legend:
DLC1 = DLC1 protein and mRNA expression; format: cell-based, human; conditions: MCF-7 cells
Protocol: MCF-7/Tam-sen, MCF-7/TAMR1 and Ishikawa cells were treated with E2 (10^−9M) or Tam (10^−9M) for 24 h, and cell lysates were assayed for DLC1 and Pak1 protein expression. […] FIG. 21C: Effect of different periods of E2 treatment and cycloheximide (CHX) and Actinomycin D (ACTD) treatment on the ability of E2 to upregulate DLC1 mRNA in MCF-7 cells.

DLC1/PIN = assay: In vivo 32P-orthophosphate labeling and immunoprecipitation of T7-DLC1/PIN; format: cell-based, human; conditions: MCF-7 cells, EGF treatment
Protocol: FIGS. 2A–2G—MapDLC1/PINg of interaction domains of Pak1 and DLC1/PIN. FIG. 2A: Identification of Pak1 domains that interact with DLC1/PIN. GST-Pak1 fusion proteins containing wild-type (amino acids 1–545), kinase domain (amino acids 270–545), N-terminal domain (amino acids 1–132), PIX binding domain (amino acids 132–270), Nck-binding domain (amino acids 1–75), Cdc42/Rac-interacting (CRIB) domain (amino acids 52–132), and auto-inhibitory domain (amino acids 75–149) were incubated with in vitro translated DLC1/PIN (amino acids 1–89), and binding was analyzed by GST pull-down assay. FIG. 2B: Identification of the DLC1/PIN region that is involved in the binding of Pak1. GST-fusions of various lengths of DLC1/PIN were used in the GST pull-down assay using ^35S-labelled Pak1 (amino acids 1–545). FIGS. 2C–2G—Pak1 phosphorylation of DLC1/PIN. FIG. 2C: In vitro kinase assay using GST-DLC1/PIN as a substrate and purified bacterially expressed Pak1 as an enzyme. MBP was used as a positive control. FIG. 2D: ZR75R cells stably expressing T7-DLC1/PIN were labeled in vivo with ^32P-orthophosphate, serum starved, treated with EGF or HRG, and immunoprecipitated and phosphorylation status of DLC1/PIN was visualized by autoradiography. […] Cells were metabolically labeled with ^32P orthophosphate, treated with or without EGF (1 nM) and phosphorylation of T7-DLC1/PIN was analyzed by immunoprecipitation. […]

DLC1-ER interaction = assay: Coimmunoprecipitation of DLC1 with ER; format: cell-based, human; conditions: growth factor stimulation
Protocol: In vitro-translated ^35ER were incubated with GST-DLC1, and analyzed by SDS-PAGE and autoradiography. FIG. 13B: Identification of ER domains that interact with DLC1. GST-ER fusion proteins containing different deletion constructs were incubated with in vitro-translated 35S-DLC1 (aa 1-89), and binding was analyzed by GST pull-down assay. FIG. 13C: Mapping of the ER-binding region in DLC1. GST-fusions of various DLC1 deletion constructs were incubated with in vitro-translated ^35S-ER, and binding was analyzed by GST pull-down assay. […] Cell lysates from Ishikawa cells was immunoprecipitated (IP) with anti-ERá mAb and immunoblotted with anti-DLC1 or ER Abs. […] Cell lysates from MCF-7/TAM-sen or Ishikawa cells were treated with Tam (10^−9M) for 24 h, and IP with anti-ERá mAb and immunoblotted with anti-DLC1 or ER Abs. […] MCF-7/DLC1 cells were treated with or without Dox for 24 h and then treated with E2 (10^−9M) or Tam (10^−8M) for 24 h, and IP with anti-ERá mAb and immunoblotted with anti-DLC1 or ER Abs. FIG. 13G: Characterization of MCF-7 cells expressing T7-DLC1-Ser88A mutant under a tetracycline-inducible promoter. […] MCF-7/DLC1 and MCF-7/DLC1-Ser88A cells were treated with or without Dox for 24 h and cell lysates were IP with anti-ERá mAb and blotted with anti-DLC1, ERá and T7 Abs.
To this end, MCF-7 cells expressing a T7-DLC1 mutant in which Ser88 and amino acid 89 were deleted under a tet-inducible promoter (MCF-7/DLC1-1-87 mutant) were generated (FIG. 13G).

MDA-MB231 cells = assay: Vesicle formation and DLC1/PIN-Pak1 colocalization after growth factor stimulation; format: cell-based, human; conditions: serum-starved cells, 20 min
SKBR-3 cells = assay: Pak1-mediated macropinocytosis, vesicle formation by confocal microscopy; format: cell-based, human; conditions: cotransfected with GFP-Pak1
Protocol: FIG. 3—Requirement of DLC1/PIN in Pak1 mediated macropinocytosis. SKBR-3 cells were cotransfected with RFP-DLC1/PIN and GFP-Pak1 (upper panel), RFP-DLC1/PIN-S88A, and GFP-Pak1 (middle panel) and RFP-DLC1-1-66, and GFP-Pak1 (lower panel). Vesicle formation and localization of GFP and RFP proteins were analyzed by confocal microscopy. Ten randomly selected fields were analyzed for each condition. The experiment was repeated twice with similar results. Quantitation of vesicles formation was done using the following scoring system. −, cells containing 0–9 vesicles; +, cells containing 10–20 vesicles; and ++, cells containing >20 vesicles.
Requirement of DLC1/PIN in Pak1 mediated macropinocytosis. […] The inventors have used the fluorescein isothiocyanate (FITC)-labeled Dextran as a marker of endocytosis using a well-established dextran beads uptake assay (Dharmawardhane et al., 2000). […]
SK-BR3 cells were cotransfected with RFP-DLC1 and GFP-Pak1 (upper panel), RFP-DLC1-S88A and GFP-Pak1 (middle panel), and RFP-DLC8-1-66 and GFP-Pak1 (bottom panel). Vesicle formation and localization of GFP and RFP proteins were analyzed by confocal microscopy. Ten randomly selected fields were analyzed for each condition. […]

NIH3T3 cells = assay: UV-induced apoptosis, Lamin A/C nuclear integrity scoring; format: cell-based, murine
Protocol: FIGS. 5A–5C—Requirement of DLC1/PIN and Pak1 interaction in cell proliferation and survival. FIG. 5A: Equal number of cells ZR75R stable cells expressing DLC1/PIN wild type or DLC1/PIN^del88-89 mutant were plated and cell proliferation was determined by trypsinizing and counting cells using a coulter counter. Each colne was plated in triplicate and experiment was repeated twice with similar results. FIG. 5B: Cell cycle progression of DLC1/PIN wild type or mutant clones was analyzed by FACS analysis. […] For example, a smooth nuclear membrane was scored as nonapoptotic, as opposed to membrane blebbing or rupture, which was scored as apoptotic. Nuclei committed to enter mitosis were not scored in either of these groups because they were easily identified for their specific “pulverized” pattern of Lamin A/C staining. Ten randomly selected fields were analyzed for each condition. […]
DLC1/PIN regulation of cell growth and survival. […] After 10 h, apoptosis was quantitated by scoring the integrity of the nuclear membrane in cells expressing both RFP and myc tags to detect DLC/DLC1/PIN and Pak1 respectively (FIG. 5D).

In the case of C[C@]12CC[C@@H]3c4ccc(O)cc4C[C@@H](CCCCCCCCC[S+]([O-])CCCC(F)(F)C(F)(F)F)[C@H]3[C@@H]1CC[C@@H]2O (stereo partly drawn) [ICI 182,780], the “estrogen-induced DLC1 expression” value (DLC1) was “effectively blocked”.
In the case of Cc1c2oc3c(C)ccc(C(=O)N[C@@H]4C(=O)N[C@H](C(C)C)C(=O)N5CCC[C@H]5C(=O)N(C)CC(=O)N(C)[C@@H](C(C)C)C(=O)O[C@@H]4C)c3nc-2c(C(=O)N[C@@H]2C(=O)N[C@H](C(C)C)C(=O)N3CCC[C@H]3C(=O)N(C)CC(=O)N(C)[C@@H](C(C)C)C(=O)O[C@@H]2C)c(N)c1=O [actinomycin D] (I: T[dV]P[Sar][NMeV] / II: T[dV]P[Sar][NMeV]; ester I:1-I:C, II:1-II:C; linker I:N-II:N via Actinocin(9to1)), the “estrogen-induced DLC1 expression” value (DLC1) was “effectively blocked”.
For “EGF: epidermal growth factor, physiologic Pak1 activator”, the DLC1/PIN phosphorylation (DLC1/PIN) was “stimulated DLC1/PIN phosphorylation”, the “interaction of DLC1 with ER” value (DLC1-ER interaction; tamoxifen-resistant Ishikawa cells) was “promotes” and the “interaction of DLC1 with ER” value (DLC1-ER interaction; tamoxifen-sensitive MCF-7 cells) was “not”. The “vesicle-like structures with colocalization of DLC1/PIN and Pak1” value (MDA-MB231 cells) was “substantial enhancement of vesicle-like structures”.
“S88A DLC1/PIN: DLC1/PIN mutant, serine 88 to alanine, lacking the Pak1 phosphorylation site” was tested, and the Pak1-induced vesicle formation (SKBR-3 cells) was “substantially interfered”, the “UV-induced apoptosis substantially reduced” value (NIH3T3 cells; 10 h after UV-irradiation) was “not” and the “protection from UV-induced apoptosis by overexpression of active Pak1” value (NIH3T3 cells; cotransfected with catalytically active Pak1) was “unable to protect”.
